Patent publication US20240245694A1, “Tricyclic Compounds and their Uses” (Novartis AG, priority 2022, published 2024)

Key:
[1] = target: WRN helicase (core helicase motif aa N517-P1238) (Homo sapiens (Human), UniProt Q14191); test: WRN ATPase assay (ADP-Glo), DNA dependent ATP hydrolysis; format: biochemical; details: 3 hours pre-incubation, 300 micromolar ATP, FLAP26 ssDNA; geometric means of at least 2 determinations
Method in brief: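 Uses the WRN core helicase (aa N517-P1238) with single-strand 45-mer FLAP26 DNA in Tris pH 7.5, MgCl2, NaCl, BSA and pluronic buffer. Compound was pre-incubated 3 h with enzyme and ATP; reaction then run with 10 nM WRN, 0.2 nM FLAP26 and 300 µM ATP for 30 min at room temperature. ADP quantified by ADP-Glo luminescence; IC50 from duplicate 4-parameter fits, geometric mean of ≥2 runs.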

SW48 cells = test: Proliferation assay SW48 (CellTiterGlo, 96 hours); format: cell-based; details: Homo sapiens
Method in brief: (§1)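 Cells in RPMI-1640/10% FCS were seeded overnight (SW48 2'000, DLD1-WRN-KO 1'500 cells/well), then exposed to eight 3-fold compound dilutions at 0.1% DMSO. ATP luminescence relative to a day-0 plate gives % growth (0% stasis, −100% complete kill). GI50 is the geometric mean of ≥2 independent replicates.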

DLD1-WRN-KO cells = test: Proliferation assay DLD1-WRN-KO (CellTiterGlo, 96 hours), off-target effects; format: cell-based; details: Homo sapiens
Method in brief: as §1

Sequence of WRN helicase (core helicase motif aa N517-P1238) (Q14191 517-1238): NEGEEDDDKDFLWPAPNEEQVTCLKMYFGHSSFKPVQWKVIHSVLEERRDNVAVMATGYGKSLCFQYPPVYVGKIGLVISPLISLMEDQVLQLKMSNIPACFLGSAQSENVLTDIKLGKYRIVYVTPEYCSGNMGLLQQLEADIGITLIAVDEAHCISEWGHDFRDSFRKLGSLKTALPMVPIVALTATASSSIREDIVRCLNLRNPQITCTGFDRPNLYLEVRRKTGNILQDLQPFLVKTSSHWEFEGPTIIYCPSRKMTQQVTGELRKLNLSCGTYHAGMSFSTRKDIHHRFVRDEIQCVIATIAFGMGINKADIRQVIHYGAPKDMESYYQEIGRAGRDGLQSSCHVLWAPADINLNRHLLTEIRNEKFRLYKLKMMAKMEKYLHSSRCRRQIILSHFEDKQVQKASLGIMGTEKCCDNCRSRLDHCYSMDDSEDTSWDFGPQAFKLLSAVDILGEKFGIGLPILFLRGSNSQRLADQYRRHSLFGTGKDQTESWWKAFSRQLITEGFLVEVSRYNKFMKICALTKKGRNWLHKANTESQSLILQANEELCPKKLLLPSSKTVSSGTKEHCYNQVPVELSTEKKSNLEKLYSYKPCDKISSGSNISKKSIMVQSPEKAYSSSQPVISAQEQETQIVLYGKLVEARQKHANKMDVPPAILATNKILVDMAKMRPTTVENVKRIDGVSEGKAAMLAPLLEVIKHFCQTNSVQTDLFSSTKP

Structure (SMILES) | IC50 [1] | GI50 (SW48 cells) | GI50 (DLD1-WRN-KO cells)
Cc1ncnc(C(=O)N2CCN(c3c4n(c5nc(N6CCOCC6)nn5c3=O)[C@H](C(=O)Nc3ccc(C(F)(F)F)cc3Cl)C[C@@H]4C)CC2)c1O [Example 2B, (7S,9S)—N-(2-chloro-4-(trifluoromethyl)phenyl)-6-(4-(5-hydroxy-6-methylpyrimidine-4-carbonyl)piperazin-1-yl)-7-methyl-2-morpholino-5-oxo-5,7,8,9-tetrahydropyrrolo[1,2-c][1,2,4]triazolo[1,5-a]pyrimidine-9-carboxamide] | 26000 nM | > 10000 nM | > 10000 nM
Cc1ncnc(C(=O)N2CCN(c3c4n(c5nc(C6=CCOCC6)nn5c3=O)[C@@H](C(=O)Nc3ccc(C(F)(F)F)cc3Cl)C[C@H]4C)CC2)c1O [Example 14A, (7R,9R)—N-(2-chloro-4-(trifluoromethyl)phenyl)-2-(3,6-dihydro-2H-pyran-4-yl)-6-(4-(5-hydroxy-6-methylpyrimidine-4-carbonyl)piperazin-1-yl)-7-methyl-5-oxo-5,7,8,9-tetrahydropyrrolo[1,2-c][1,2,4]triazolo[1,5-a]pyrimidine-9-carboxamide] | 40 nM | 20 nM | > 10000 nM
Cc1cc(C(F)(F)F)ccc1NC(=O)[C@H]1C[C@@H](C)c2c(N3CCN(C(=O)c4nccc(F)c4O)CC3)c(=O)n3nc(C4=CCOCC4)nc3n21 [Example 16, (7R,9R)-2-(3,6-dihydro-2H-pyran-4-yl)-6-(4-(4-fluoro-3-hydroxypicolinoyl)piperazin-1-yl)-7-methyl-N-(2-methyl-4-(trifluoromethyl)phenyl)-5-oxo-5,7,8,9-tetrahydropyrrolo[1,2-c][1,2,4]triazolo[1,5-a]pyrimidine-9-carboxamide] | 40 nM | 10 nM | > 10000 nM
Cc1cc(C(F)(F)F)ccc1NC(=O)[C@H]1CCc2c(N3CCN(C(=O)c4nccc(Cl)c4O)CC3)c(=O)n3nc(C4=CCOCC4)nc3n21 [Example 19A, (R)-6-(4-(4-chloro-3-hydroxypicolinoyl)piperazin-1-yl)-2-(3,6-dihydro-2H-pyran-4-yl)-N-(2-methyl-4-(trifluoromethyl)phenyl)-5-oxo-5,7,8,9-tetrahydropyrrolo[1,2-c][1,2,4]triazolo[1,5-a]pyrimidine-9-carboxamide] | 40 nM | 200 nM | > 10000 nM
